Source: US9169509B2, “Topoisomerase 2b as a predictor of susceptibility to anthracycline-induced cardiotoxicity” (Board of Regents, The University of Texas System, priority 2013, dated 2015)
Peptide text beside a SMILES is read from it. * marks the point of attachment. Cbz = O=C(OCc1ccccc1)*

What was measured:
Top2b [1] = biological target: T1, Top2b (Homo sapiens, UniProt Q02880); test: Immunoblot of Top2b in U2OS cells treated with Dex and/or MG132; format: cell-based
T1 construct: endogenous in cells; host or cells: U2OS
T1 sequence (Q02880 2-1626 limits assumed): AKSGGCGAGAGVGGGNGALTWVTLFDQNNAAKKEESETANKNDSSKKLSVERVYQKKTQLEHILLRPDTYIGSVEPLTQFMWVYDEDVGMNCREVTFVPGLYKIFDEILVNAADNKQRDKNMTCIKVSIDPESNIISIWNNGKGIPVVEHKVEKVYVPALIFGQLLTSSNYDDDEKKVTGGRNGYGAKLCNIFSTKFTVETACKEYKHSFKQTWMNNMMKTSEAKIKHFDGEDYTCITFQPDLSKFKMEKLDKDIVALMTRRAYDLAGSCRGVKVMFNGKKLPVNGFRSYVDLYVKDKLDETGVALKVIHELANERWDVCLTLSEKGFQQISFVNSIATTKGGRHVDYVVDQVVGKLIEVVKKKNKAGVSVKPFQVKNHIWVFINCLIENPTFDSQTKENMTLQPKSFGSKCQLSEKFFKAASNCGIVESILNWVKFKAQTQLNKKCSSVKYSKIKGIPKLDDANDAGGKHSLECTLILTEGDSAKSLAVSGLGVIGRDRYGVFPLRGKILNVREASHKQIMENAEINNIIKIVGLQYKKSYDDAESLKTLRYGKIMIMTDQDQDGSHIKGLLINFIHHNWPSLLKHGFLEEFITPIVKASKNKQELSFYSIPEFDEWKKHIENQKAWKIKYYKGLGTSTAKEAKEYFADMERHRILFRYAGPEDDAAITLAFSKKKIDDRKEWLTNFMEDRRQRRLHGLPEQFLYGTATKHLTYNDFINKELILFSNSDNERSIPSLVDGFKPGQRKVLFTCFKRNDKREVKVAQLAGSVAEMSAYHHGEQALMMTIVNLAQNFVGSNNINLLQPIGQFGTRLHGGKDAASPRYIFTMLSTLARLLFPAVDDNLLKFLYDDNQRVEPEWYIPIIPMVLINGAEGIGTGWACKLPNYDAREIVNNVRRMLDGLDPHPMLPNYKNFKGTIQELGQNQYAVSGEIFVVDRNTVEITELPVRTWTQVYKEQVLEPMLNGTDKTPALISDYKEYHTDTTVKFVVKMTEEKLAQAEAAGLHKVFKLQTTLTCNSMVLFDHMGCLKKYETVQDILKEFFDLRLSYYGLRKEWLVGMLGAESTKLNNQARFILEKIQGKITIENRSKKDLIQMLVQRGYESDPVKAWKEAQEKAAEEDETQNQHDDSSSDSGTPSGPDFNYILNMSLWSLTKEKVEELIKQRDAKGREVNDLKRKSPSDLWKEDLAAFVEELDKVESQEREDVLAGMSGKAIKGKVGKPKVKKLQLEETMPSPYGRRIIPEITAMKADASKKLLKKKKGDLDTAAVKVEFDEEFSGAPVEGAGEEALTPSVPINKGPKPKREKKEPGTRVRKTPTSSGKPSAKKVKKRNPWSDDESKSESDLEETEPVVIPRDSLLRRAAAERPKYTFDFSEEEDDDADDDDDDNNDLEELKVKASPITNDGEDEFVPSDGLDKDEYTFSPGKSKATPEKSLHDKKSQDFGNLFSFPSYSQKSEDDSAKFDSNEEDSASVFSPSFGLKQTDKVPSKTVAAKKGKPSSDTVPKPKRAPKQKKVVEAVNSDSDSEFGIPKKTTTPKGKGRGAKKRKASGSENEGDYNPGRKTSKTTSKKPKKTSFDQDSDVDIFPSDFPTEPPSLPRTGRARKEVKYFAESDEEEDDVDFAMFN
Protocol: (§1) FIG. 10. […] U2OS cells were treated with 100 mM Dex and/or 10 mM MG132, a proteosome inhibitor, for 2, 4, or 6 hours. Cell lysates were immunoblotted with anti-Top2a, Top2b, or actin antibodies.
(§2) The effect of Dex treatment of Top2a levels was also tested. Briefly, U2OS cells were treated with 100 mM Dex and/or 10 mM MG132 (a proteosome inhibitor) for 2, 4, or 6 hours. Cell lysates were immunoblotted with anti-Top2a, Top2b, or actin antibodies.

mouse heart = test: Cardiac MRI for measuring cardiac function after chronic doxorubicin
Protocol: Before Cre induction, cardiac MRI scan was performed on each mouse to examine the baseline ejection fraction. Cardiomyocyte-specific Cre induction was carried out by treating mice with tamoxifen. […] Doxorubicin treatment (5 mg/kg, i.p., once a week for 5 weeks) was started 7 days after the second MRI scan. Two weeks after the last dose of doxorubicin, a third MRI scan was performed (FIG. 6a).
Every mouse in the EF experiments received 3 MRI scans, i.e., a baseline scan, a second scan 2 weeks after the end of tamoxifen treatment, and a third scan 2 weeks after the last dose of doxorubicin. […] Mice were anesthetized with isoflurane (2.5% in 97.5% O2), and scanned on a 7.0 T Biospec small animal scanner (Bruker Biospin Inc., Billerica, Mass.). Imaging gradients with 60 mm inner diameter (ID) were used with a 35 mm ID linear birdcage-style volume resonator. T1-weighted anatomic reference images were acquired using a three dimension (3D) fast low-angle shot (FLASH) gradient echo sequence. A retrospectively gated FLASH pulse sequence was used to acquire cardiac cine images with excellent contrast between bright blood and adjacent myocardium. To measure volumetric left ventricular ejection fraction (LVEF), at least 6 short axis images were scanned at 1 mm interval from the apex to the base of the heart. End-diastolic (ED) and end-systolic (ES) left ventricular volumes were obtained by the biplane area length method, and LVEF was calculated with the equation: [(ED-ES)/ED]/100.
Two weeks after completion of tamoxifen treatment mice were treated with doxorubicin or drug vehicle. Two cohorts of mice were treated with different schedules. […] To evaluate the chronic effect of doxorubicin on cardiac function, doxorubicin (5 mg/kg, i.p.) was administered once a week for 5 weeks, and cardiac function was examined 2 weeks after the last dose of doxorubicin by using MRI.
The effect of chronic doxorubicin treatment (5 mg/kg, ip, once a week for 5 weeks) was evaluated for its effect on ejection fraction.

[2] = system: DNA double strand breaks in the heart; test: Detection of DNA double strand breaks (γ-H2AX staining) in heart sections; format: in vivo, mouse; conditions: dexrazoxane 100 mg/kg ip 8 hrs prior to doxorubicin 25 mg/kg; hearts 16 hr after doxorubicin
Protocol: After mice were sacrificed, hearts were perfused with ice-cold PBS, quickly removed, embedded in OCT compound (Fisher Scientific), and snap-frozen in liquid nitrogen. The heart was sectioned to 5 μm-thick slices using a cryostat. Heart sections were stored at −80° C. until immunofluorescence staining was performed. Heart sections were rinsed with PBS at room temperature, fixed in BD Cytofix/Cytoperm solution (BD Biosciences) for 15 m, washed in PBS, and permeabilized in BD Perm/Wash solution for 30 m. Heart sections were first blocked with BSA (2 mg/ml) for 30 m, then incubated with an mouse monoclonal anti-γ-H2AX antibody conjugated with Alexa Fluor 555 (Clone N1-431, BD Biosciences) for 1 h. Nuclei were stained with DAPI (Sigma, 1 μg/ml PBS), and the slides were sealed for examination with an Olympus epifluorescence microscope (Model BX51). To quantify DSBs, the numbers of γ-H2AX-positive nuclei and the total nuclei were counted in 5 microscopic fields (400×) per section. For each mouse, five heart sections were counted to determine the percentage of γ-H2AX-positive nuclei.
To further confirm the cardio-protective effect of Dex, DNA double strand breaks were assessed in heart tissues. Dexrazoxane (100 mg/kg) was injected (ip) 8 hrs prior to doxorubicin (25 mg/kg) treatment. Hearts were harvested 16 hr after doxorubicin treatment. The percentage of γH2AX-positive nuclei was counted in 5 fields (400×) in each heart section. Five sections were counted in each heart to determine the average percentage of γH2AX-positive nuclei.

heart sections = test: Detection of apoptosis in heart sections (TUNEL assay); format: in vivo, mouse; conditions: dexrazoxane 100 mg/kg ip 8 hrs prior to doxorubicin 25 mg/kg ip; hearts 16 hrs after doxorubicin
Protocol: Apoptosis was detected by using TUNEL assay on heart sections. Heart harvest, sectioning, and storage were described above. Heart sections were warmed to room temperature before the apoptotic nuclei were stained by using a commercially available kit (In Situ Cell Death Detection Kit, Cat. No. 12156792910, Roche Applied Science). The entire staining procedures were performed according to the manufacturer's instructions. The nuclei were stained with DAPI (Sigma) before the slides were sealed and examined with an Olympus epifluorescence microscope (Model BX51). The apoptotic nuclei and the total nuclei per heart section were counted at 200× magnification. The apoptotic nuclei in 5 heart sections of each mouse were counted and averaged.
The cardio-protective effect of Dex against doxirubin-induced apoptosis was assessed in heart tissues. Dexrazoxane (100 mg/kg) was injected (ip) 8 hrs prior to doxorubicin (25 mg/kg) injection (ip). One group received only doxorubicin and a second group received only dexrazoxane. Hearts were harvested 16 hrs after doxorubicin treatment. The numbers of TUNEL-positive nuclei were counted in five fields in each heart section.

Top2b [3] = biological target: T2, Top2b (Mus musculus, UniProt Q64511); test: Western blot of Top2b protein levels in heart tissue after dexrazoxane; format: in vivo; conditions: dexrazoxane 100 mg/kg i.p.
T2 construct: Frozen tissues were homogenized in lysis buffer and sonicated to extract proteins for western blotting; from tissue; host or cells: mouse heart
T2 sequence (Q64511 2-1612 limits assumed): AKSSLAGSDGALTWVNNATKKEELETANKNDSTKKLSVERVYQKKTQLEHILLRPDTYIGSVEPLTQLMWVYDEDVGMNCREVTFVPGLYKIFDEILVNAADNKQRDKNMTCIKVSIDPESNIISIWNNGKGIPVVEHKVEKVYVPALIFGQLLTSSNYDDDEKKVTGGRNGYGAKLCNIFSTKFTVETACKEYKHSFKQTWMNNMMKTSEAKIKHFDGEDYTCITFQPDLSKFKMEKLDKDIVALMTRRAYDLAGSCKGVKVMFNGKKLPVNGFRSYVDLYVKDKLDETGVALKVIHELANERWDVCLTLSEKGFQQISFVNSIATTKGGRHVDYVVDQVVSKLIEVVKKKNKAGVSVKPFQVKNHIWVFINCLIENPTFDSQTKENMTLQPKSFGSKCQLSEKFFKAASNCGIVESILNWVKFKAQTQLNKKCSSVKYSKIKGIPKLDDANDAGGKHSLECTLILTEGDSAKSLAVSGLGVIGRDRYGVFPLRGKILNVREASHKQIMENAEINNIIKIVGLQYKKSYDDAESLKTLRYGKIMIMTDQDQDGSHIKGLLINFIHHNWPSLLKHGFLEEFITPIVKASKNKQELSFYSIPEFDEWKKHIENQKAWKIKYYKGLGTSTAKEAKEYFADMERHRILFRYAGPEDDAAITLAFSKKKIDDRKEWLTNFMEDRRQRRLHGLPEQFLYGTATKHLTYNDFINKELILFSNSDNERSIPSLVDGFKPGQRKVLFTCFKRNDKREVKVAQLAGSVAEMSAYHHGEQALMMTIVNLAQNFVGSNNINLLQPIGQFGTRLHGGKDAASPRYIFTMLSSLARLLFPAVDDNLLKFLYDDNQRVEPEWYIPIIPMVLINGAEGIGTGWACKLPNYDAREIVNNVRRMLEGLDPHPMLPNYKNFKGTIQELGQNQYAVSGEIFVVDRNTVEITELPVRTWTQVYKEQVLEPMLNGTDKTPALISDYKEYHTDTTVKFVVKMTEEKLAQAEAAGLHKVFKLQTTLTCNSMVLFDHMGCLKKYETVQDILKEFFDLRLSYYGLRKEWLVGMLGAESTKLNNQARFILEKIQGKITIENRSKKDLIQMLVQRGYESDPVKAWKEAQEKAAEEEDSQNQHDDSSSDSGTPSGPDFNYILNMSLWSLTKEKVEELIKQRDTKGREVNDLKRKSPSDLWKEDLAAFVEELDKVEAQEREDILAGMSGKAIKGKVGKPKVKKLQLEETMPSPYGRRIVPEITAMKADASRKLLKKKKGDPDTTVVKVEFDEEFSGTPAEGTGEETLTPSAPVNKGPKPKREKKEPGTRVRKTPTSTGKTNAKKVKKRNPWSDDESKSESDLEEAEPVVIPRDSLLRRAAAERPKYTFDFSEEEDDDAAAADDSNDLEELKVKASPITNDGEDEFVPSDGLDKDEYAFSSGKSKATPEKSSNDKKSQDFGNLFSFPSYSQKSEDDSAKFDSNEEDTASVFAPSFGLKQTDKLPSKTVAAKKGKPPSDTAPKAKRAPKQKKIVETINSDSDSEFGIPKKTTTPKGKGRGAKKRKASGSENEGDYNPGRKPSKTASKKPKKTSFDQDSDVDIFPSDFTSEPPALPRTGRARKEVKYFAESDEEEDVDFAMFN
Protocol: Expression of Top2b was examined in the hearts of mice. After sacrifice, the heart was quickly removed and homogenized immediately in lysis buffer. After homogenization, the lysate was sonicated at 4° C. and an aliquot was removed for protein concentration measurement. The lysate was stored at −80° C. for western blot analysis. 20 μg of lysate proteins were electrophoresed and transferred to PVDF membranes. Blots were blocked with 5% non-fat dry milk, and incubated overnight at 4° C. with anti-Top2b antibody (Abcam). To detect mitochondrial proteins, the mitochondria were isolated from cardiomyocytes. The cardiomyocytes were isolated with a Langendorff perfusion system according to a published protocol3. Briefly, heart was removed and rinsed with ice-cold PBS twice before connecting to a Langendorff apparatus through the aorta. The heart was perfused first with perfusion buffer for 3 m at 37° C. (3 ml/min), then digestion buffer (enzyme-containing) buffer at 37° C. for 8-10 m. The heart was disintegrated manually and the tissue/cells were separated by using forceps. The tissue/cell suspension was incubated for another 3-5 m in digestion buffer, then triturate the cells gently using a 1 ml pipette before adding stopping buffer. After purification by centrifugation the mitochondria were isolated from the cardiomyocytes with a kit (Cat. No. MS853, Mitosciences) for separating mitochondria from nuclei and cytosol. The isolated mitochondria were homogenized in lysis buffer and sonicated before being stored at −80° C. until use. 20 μg of lysate proteins were electrophoresed and transferred to PVDF membranes. Blots were blocked incubated overnight at 4° C. with anti-Ndufa3 (Sigma), anti-Atp5a (Abcam) or anti-Sdha antibodies (Abcam). After incubation with HRP-conjugated secondary antibodies for 40 m at room temperature, the blots were detected with a luminol-based detection kit (ECL, GE Health Care).
To test the effect of dexrazoxane (Dex) on Top2b protein levels, mice were treated with dexrazoxane (100 mg/kg, i.p.). At different time points following treatment hearts were removed under anesthesia and perfused with PBS to remove blood. Each heart was cut into 10 pieces and snap-frozen in liquid nitrogen. Frozen tissues were homogenized in lysis buffer and sonicated to extract proteins for western blotting.

Top2a = biological target: T3, Top2a (Homo sapiens, UniProt P11388); test: Immunoblot of Top2a in U2OS cells treated with Dex and/or MG132; format: cell-based; conditions: 100 mM Dex for 2, 4, or 6 hours
T3 construct: endogenous in cells; host or cells: U2OS
T3 sequence (P11388 whole entry): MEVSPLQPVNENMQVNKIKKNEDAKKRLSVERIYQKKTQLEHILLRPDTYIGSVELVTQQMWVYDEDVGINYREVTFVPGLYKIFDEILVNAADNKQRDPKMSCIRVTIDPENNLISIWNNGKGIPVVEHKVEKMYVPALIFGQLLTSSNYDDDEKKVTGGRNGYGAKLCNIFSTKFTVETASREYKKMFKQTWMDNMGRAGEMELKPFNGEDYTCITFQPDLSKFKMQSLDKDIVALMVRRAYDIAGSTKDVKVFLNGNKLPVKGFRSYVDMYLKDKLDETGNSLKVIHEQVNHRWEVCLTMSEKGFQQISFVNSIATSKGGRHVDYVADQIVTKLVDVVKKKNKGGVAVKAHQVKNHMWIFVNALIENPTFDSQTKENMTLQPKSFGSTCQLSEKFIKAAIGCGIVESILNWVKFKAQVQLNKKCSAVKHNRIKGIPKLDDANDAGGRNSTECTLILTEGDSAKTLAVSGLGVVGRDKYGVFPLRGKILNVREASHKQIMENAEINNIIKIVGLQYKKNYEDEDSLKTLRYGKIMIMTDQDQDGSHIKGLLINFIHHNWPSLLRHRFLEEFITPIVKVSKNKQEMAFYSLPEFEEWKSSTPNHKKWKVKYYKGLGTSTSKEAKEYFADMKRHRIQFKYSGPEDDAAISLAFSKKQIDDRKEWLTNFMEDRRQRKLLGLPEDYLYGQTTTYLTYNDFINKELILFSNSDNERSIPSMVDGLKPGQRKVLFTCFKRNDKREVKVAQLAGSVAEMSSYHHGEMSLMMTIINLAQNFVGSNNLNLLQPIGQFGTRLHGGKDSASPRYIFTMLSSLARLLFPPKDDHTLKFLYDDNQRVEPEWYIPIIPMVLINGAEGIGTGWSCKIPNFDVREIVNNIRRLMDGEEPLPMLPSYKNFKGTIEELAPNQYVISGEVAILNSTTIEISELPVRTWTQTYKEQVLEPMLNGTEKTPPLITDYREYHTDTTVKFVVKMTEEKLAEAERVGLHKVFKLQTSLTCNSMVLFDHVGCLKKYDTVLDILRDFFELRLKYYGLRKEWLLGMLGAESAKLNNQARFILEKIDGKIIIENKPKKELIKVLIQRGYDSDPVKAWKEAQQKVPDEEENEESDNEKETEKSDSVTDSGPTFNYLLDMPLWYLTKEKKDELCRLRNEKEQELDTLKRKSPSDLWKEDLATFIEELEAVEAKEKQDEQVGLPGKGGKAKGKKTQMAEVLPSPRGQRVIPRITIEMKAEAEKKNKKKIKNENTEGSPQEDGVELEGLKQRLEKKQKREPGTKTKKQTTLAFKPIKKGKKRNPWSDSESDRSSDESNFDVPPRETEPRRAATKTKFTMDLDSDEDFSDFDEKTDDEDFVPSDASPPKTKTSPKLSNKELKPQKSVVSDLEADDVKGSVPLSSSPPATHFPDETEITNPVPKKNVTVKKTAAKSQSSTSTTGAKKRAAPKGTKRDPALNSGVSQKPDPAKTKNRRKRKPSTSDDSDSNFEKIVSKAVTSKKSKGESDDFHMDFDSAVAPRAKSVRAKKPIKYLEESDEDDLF
Protocol: as §1, §2

## CC(C)C[C@@H](C=O)NC(=O)[C@H](CC(C)C)NC(=O)[C@H](CC(C)C)NC(=O)OCc1ccccc1 [MG132] (Cbz-Leu-Leu-Leu-aldehyde)
Top2b [1]; 10 mM MG132 with 100 mM Dex, 2, 4, or 6 hours
  Effect on Dex-mediated Top2b degradation: inhibited

## CC/C(=C(\c1ccccc1)c1ccc(OCCN(C)C)cc1)c1ccccc1 [Tamoxifen, tamoxifen]
Mouse heart; tamoxifen 25 mg/kg gavage once a day for 5 days, all three Top2b genotype groups
  Effect on ejection fractions: did not significantly affect

## C[C@@H](CN1CC(=O)NC(=O)C1)N1CC(=O)NC(=O)C1 [dexrazoxane]
[2]
  Protection against doxorubicin-induced DNA double strand breaks in the heart (γH2AX-positive nuclei): protects against doxorubicin-induced DNA double strand breaks
Heart sections
  Protection against doxorubicin-induced apoptosis in the heart (TUNEL-positive nuclei): protects against doxorubicin-induced apoptosis
Top2b [3]
  Time point at which Top2b levels begin to recover: 12 h
Top2b [3]; 6 hours after therapy
  Top2b protein level in the heart at 6 hours: nearly undetectable
Top2b [3]; 24 hours
  Top2b protein level in the heart at 24 hours: still noticeably reduced
Top2b [3]; time course
  Top2b protein levels in the heart: greatly reduced
Top2b [1]; 100 mM Dex for 2, 4, or 6 hours
  Degradation of Top2b: caused degradation of Top2b
Top2a
  Degradation of Top2a: but not Top2a
Mouse heart; dexrazoxane 100 mg/kg ip 8 hrs prior to doxorubicin 5 mg/kg ip once a week for 5 weeks
  Ejection fraction, Dex in combination with doxorubicin: unchanged
Mouse heart; mice, dexrazoxane 100 mg/kg ip alone
  Ejection fraction, Dex alone: unchanged
